Measured values reported in patent US20250188075A1, “SUBSTITUTED HETEROCYCLIC CSNK1 INHIBITORS” (The Broad Institute, Inc., priority 2022, published 2025).

Assays:
human CSNK1A1 = human CSNK1A1 (Homo sapiens (Human), UniProt P48729); assay: CSNK1A1 high ATP assay (ADP-Glo, 1 mM ATP); type: biochemical; settings: median, read-out: CSNK1A1 High ATP assay IC50 [mol/l] (median)
Experimental: CSNK1A1-inhibitory activity of compounds of the present invention in presence of 1 mM adenosine-tri-phosphate (ATP) was quantified employing the CSNK1A1-high-ATP-assay as described in the following paragraphs. In essence, the enzyme activity is measured by quantification of the adenosine-di-phosphate (ADP), which is generated as a co-product of the enzyme reaction, via the “ADP-Glo™ Kinase Assay” kit from the company Promega. This detection system works as follows: In a first step the ATP not consumed in the kinase reaction is quantitatively converted to CAMP employing an adenylate cyclase (“ADP-Glo-reagent”), then the adenylate cyclase is stopped and the ADP generated in the kinase reaction converted to ATP which generates in a luciferase-based reaction a glow-luminescence signal (“Kinase Detection Reagent”).
(§1) Recombinant fusion protein of N-terminal Glutathion-S-Transferase (GST) and full-length human CSNK1A1, expressed by baculovirus infected insect cells and purified via Glutathion affinity chromatography, was purchased from Life Technologies (product no. PV4174) and used as enzyme. As substrate for the kinase reaction the biotinylated peptide biotin-Ahx-KRRRAL-pS-VASLPGL (C-terminus in amide form) was used which can be purchased e.g. from the company Biosyntan (Berlin-Buch, Germany).
For the assay 50 nl of a 100 fold concentrated solution of the test compound in DMSO was pipetted into a white low volume 384-well microtiter plate (Greiner Bio-One, Frickenhausen, Germany), 2 μL of a solution of CSNK1A1 in aqueous assay buffer [50 mM HEPES pH 7.5, 10% (v/v) glycerol, 10 mM MgCl2, 50 mM NaCl, 1 mM dithiothreitol, 0.01% (w/v) bovine serum albumin, 0.01% (v/v) Triton X-100] were added and the mixture was incubated for 15 min at 22° C. to allow pre-binding of the test compounds to the enzyme before the start of the kinase reaction. Then the kinase reaction was started by the addition of 3 μL of a solution of ATP (1.67 mM=>final conc. in the 5 μL assay volume is 1 mM) and peptide substrate (167 μM=>final conc. in the 5 μL assay volume is 100 μM) in assay buffer and the resulting mixture was incubated for a reaction time of 30 min at 22° C. The concentration of CSNK1A1 was adjusted depending of the activity of the enzyme lot and was chosen appropriate to have the assay in the linear range, a typical concentration is about 0.4 ng/μL. The reaction was stopped by the addition of 2.5 μL of “ADP-Glo-reagent” (1:1.5 fold diluted with water) and the resulting mixture was incubated at 22° C. for 1 h to convert the ATP not consumed in the kinase reaction completely to CAMP. Subsequently 2.5 μL of the “kinase detection reagent” (1.2 fold more concentrated than recommended by the producer) were added, the resulting mixture was incubated at 22° C. for 1 h and then the luminescence measured with a suitable measurement instrument (e.g. Viewlux™ from Perkin-Elmer). The amount of emitted light was taken as a measure for the amount of ADP generated and thereby for the activity of the CSNK1A1.
(§2) The data were normalised (enzyme reaction without inhibitor=0% inhibition, all other assay components but no enzyme=100% inhibition).

human CSNK1G3 = human CSNK1G3 (Homo sapiens (Human), UniProt Q9Y6M4); assay: CSNK1G3 assay (ADP-Glo); type: biochemical; settings: median, read-out: CSNK1G IC50 [mol/l] (median)
human CSNK1G3, sequence (Q9Y6M4 whole entry): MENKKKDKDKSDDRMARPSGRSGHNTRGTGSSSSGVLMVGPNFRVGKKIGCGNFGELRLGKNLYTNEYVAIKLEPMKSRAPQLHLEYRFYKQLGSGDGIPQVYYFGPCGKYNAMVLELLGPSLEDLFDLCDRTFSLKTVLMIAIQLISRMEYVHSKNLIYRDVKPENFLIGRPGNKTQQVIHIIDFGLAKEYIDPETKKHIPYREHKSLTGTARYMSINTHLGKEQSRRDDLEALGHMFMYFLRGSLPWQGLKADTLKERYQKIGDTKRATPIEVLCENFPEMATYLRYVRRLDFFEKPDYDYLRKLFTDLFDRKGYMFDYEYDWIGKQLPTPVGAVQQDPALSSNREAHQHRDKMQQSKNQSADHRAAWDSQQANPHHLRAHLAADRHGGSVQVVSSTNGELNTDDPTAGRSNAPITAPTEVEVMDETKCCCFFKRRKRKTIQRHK
Experimental: CSNK1G3-inhibitory activity of compounds of the present invention in presence of 1 μM adenosine-tri-phosphate (ATP) was quantified employing the CSNK1G3 assay as described in the following paragraphs. In essence, the enzyme activity is measured by quantification of the adenosine-di-phosphate (ADP), which is generated as a co-product of the enzyme reaction, via the “ADP-Glo™ Kinase Assay” kit from the company Promega. This detection system works as follows: In a first step the ATP not consumed in the kinase reaction is quantitatively converted to CAMP employing an adenylate cyclase (“ADP-Glo-reagent”), then the adenylate cyclase is stopped and the ADP generated in the kinase reaction converted to ATP which generates in a luciferase-based reaction a glow-luminescence signal (“Kinase Detection Reagent”).
as §1, with “CSNK1G3,” for “CSNK1A1,”, “PV3838)” for “PV4174)”
For the assay 50 nl of a 100 fold concentrated solution of the test compound in DMSO was pipetted into a white 1536-well microtiter plate (Greiner Bio-One, Frickenhausen, Germany), 2 μL of a solution of CSNK1G3 in aqueous assay buffer [50 mM HEPES pH 7.5, 10% (v/v) glycerol, 10 mM MgCl2, 50 mM NaCl, 1 mM dithiothreitol, 0.01% (w/v) bovine serum albumin, 0.01% (v/v) Triton X-100] were added and the mixture was incubated for 15 min at 22° C. to allow pre-binding of the test compounds to the enzyme before the start of the kinase reaction. Then the kinase reaction was started by the addition of 3 μL of a solution of ATP ([…]=>final conc. in the 5 μL assay volume is 1 M) and peptide substrate (50 μM=>final conc. in the 5 μL assay volume is 30 μM) in assay buffer and the resulting mixture was incubated for a reaction time of 30 min at 22° C. The concentration of CSNK1G3 was adjusted depending of the activity of the enzyme lot and was chosen appropriate to have the assay in the linear range, a typical concentration is about 0.06 ng/μL. The reaction was stopped by the addition of 2.5 μL of “ADP-Glo-reagent” (1:1.5 fold diluted with water) and the resulting mixture was incubated at 22° C. for 1 h to convert the ATP not consumed in the kinase reaction completely to CAMP. Subsequently 2.5 μL of the “kinase detection reagent” (1.2 fold more concentrated than recommended by the producer) were added, the resulting mixture was incubated at 22° C. for 1 h and then the luminescence measured with a suitable measurement instrument (e.g. Viewlux™ from Perkin-Elmer). The amount of emitted light was taken as a measure for the amount of ADP generated and thereby for the activity of the CSNK1G3.
as §2

human CSNK1A1, sequence (P48729 whole entry): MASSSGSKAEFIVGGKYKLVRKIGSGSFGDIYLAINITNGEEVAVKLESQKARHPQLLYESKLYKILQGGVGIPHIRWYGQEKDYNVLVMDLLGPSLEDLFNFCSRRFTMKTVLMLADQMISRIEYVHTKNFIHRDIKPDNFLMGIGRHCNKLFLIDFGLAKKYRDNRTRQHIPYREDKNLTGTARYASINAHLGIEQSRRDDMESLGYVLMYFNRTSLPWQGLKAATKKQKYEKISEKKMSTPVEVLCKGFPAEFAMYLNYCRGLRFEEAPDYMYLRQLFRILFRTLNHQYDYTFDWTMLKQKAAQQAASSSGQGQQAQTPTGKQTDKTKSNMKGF

Row | SMILES | IC50 (human CSNK1A1) [nM] | IC50 (human CSNK1G3) [nM]
1 | Cn1nc(CC(=O)Nc2cc(-c3[nH]c4cccnc4c3-c3ccccn3)ccn2)cc1C(F)(F)F [Example 21, 2-[1-methyl-5-(trifluoromethyl)pyrazol-3-yl]-N-[4-[3-(2-pyridyl)-^1H-pyrrolo[3,2-b]pyridin-2-yl]-2-pyridyl]acetamide] | 86.6 | 29.7
2 | O=C(Cc1ccns1)Nc1cc(-c2[nH]c3cccnc3c2-c2ccccn2)ccn1 [Example 22, 2-isothiazol-5-yl-N-[4-[3-(2-pyridyl)-^1H-pyrrolo[3,2-b]pyridin-2-yl]-2-pyridyl]acetamide] | 41.2 | 27
3 | O=C(Cc1ccno1)Nc1cc(-c2[nH]c3cccnc3c2-c2ccccn2)ccn1 [Example 23, 2-isoxazol-5-yl-N-[4-[3-(2-pyridyl)-^1H-pyrrolo[3,2-b]pyridin-2-yl]-2-pyridyl]acetamide] | 50.1 | 27.3
4 | Cc1cc(CC(=O)Nc2cc(-c3[nH]c4cccnc4c3-c3ccccn3)ccn2)no1 [Example 26, 2-(5-methylisoxazol-3-yl)-N-[4-[3-(2-pyridyl)-^1H-pyrrolo[3,2-b]pyridin-2-yl]-2-pyridyl]acetamide] | 90.8 | 26.5
5 | O=C(Cc1cc(C2CC2)on1)Nc1cc(-c2[nH]c3cccnc3c2-c2ccccn2)ccn1 [Example 27, 2-(5-cyclopropylisoxazol-3-yl)-N-[4-[3-(2-pyridyl)-^1H-pyrrolo[3,2-b]pyridin-2-yl]-2-pyridyl]acetamide] | 244 | 19.7
6 | Cn1nc(CC(=O)Nc2cc(-c3[nH]c4cccnc4c3-c3ccccn3)ccn2)cc1C1CC1 [Example 29, 2-(5-cyclopropyl-1-methyl-pyrazol-3-yl)-N-[4-[3-(2-pyridyl)-^1H-pyrrolo[3,2-b]pyridin-2-yl]-2-pyridyl]acetamide] | 188 | 27.4
7 | O=C(Nc1cc(-c2[nH]c3nccnc3c2-c2ccccn2)ccn1)[C@@H](CC(F)F)c1ccc(F)cc1 [Example C1, reference compound] | 20.1 | 6.54
8 | O=C(Nc1cc(-c2[nH]c3ccc(F)nc3c2-c2ccccn2)ccn1)[C@@H](CC(F)F)c1ccc(F)cc1 [Example C2, reference compound] | 5.27 | 2.4
9 | O=C(Nc1cc(-c2[nH]c3c(OCC(F)F)ncnc3c2-c2ccccn2)ccn1)[C@@H](CC(F)F)c1ccc(F)cc1 [Example C3, reference compound] | 8.84 | 6.22
